# Measured values: patent publication US20240373849A1, “INSECT NEUROPEPTIDE ANALOGUES” (THE UNIVERSITY COURT OF THE UNIVERSITY OF GLASGOW, priority 2020, published 2024)
# Where “and” joins values, the source holds several entries; their conditions need not be identical. Equal values may be shown once. Square brackets hold non-standard residues; d marks the D form. * marks the point of attachment. Guanidyl = -C(=N+Me2)NMe2 on the N-terminal amine (tetramethylguanidyl cap), CN(C)C(=[N+](C)C)*; NMeV = CN[C@H](C(=O)O)C(C)C
# B1: AH257 (Guanidyl-LVAFPR-(Me)V-NH2) (peptide)
# peptide: Guanidyl-LVAFPR[NMeV]-NH2
# SMILES: CC(C)C[C@H](NC(N(C)C)=[N+](C)C)C(=O)N[C@H](C(=O)N[C@@H](C)C(=O)N[C@@H](Cc1ccccc1)C(=O)N1CCC[C@H]1C(=O)N[C@@H](CCCNC(=N)N)C(=O)N(C)[C@H](C(N)=O)C(C)C)C(C)C
# B2: AH259 (Guanidyl-L-(Me)V-AFPRV-NH2) (peptide)
# peptide: Guanidyl-L[NMeV]AFPRV-NH2
# SMILES: CC(C)C[C@H](NC(N(C)C)=[N+](C)C)C(=O)N(C)[C@H](C(=O)N[C@@H](C)C(=O)N[C@@H](Cc1ccccc1)C(=O)N1CCC[C@H]1C(=O)N[C@@H](CCCNC(=N)N)C(=O)N[C@H](C(N)=O)C(C)C)C(C)C
# Tests used:
# [1] = target: T1, CapaR (Drosophila melanogaster, UniProt Q8ITC7); test: Measurement of intracellular Ca2+ in S2 cells transfected with CapaR (agonist response); assay type: cell-based; settings: 10^−7 M; activity normalised to that of native Capa2 (designated 100%)
# T1 construct: transiently transfected with the apoaequorin ORF; expressed in transfected cells; host or cells: Drosophila melanogaster S2 cells, transient transfection, expression induced with CuSO4
# T1 sequence (Q8ITC7 1-477): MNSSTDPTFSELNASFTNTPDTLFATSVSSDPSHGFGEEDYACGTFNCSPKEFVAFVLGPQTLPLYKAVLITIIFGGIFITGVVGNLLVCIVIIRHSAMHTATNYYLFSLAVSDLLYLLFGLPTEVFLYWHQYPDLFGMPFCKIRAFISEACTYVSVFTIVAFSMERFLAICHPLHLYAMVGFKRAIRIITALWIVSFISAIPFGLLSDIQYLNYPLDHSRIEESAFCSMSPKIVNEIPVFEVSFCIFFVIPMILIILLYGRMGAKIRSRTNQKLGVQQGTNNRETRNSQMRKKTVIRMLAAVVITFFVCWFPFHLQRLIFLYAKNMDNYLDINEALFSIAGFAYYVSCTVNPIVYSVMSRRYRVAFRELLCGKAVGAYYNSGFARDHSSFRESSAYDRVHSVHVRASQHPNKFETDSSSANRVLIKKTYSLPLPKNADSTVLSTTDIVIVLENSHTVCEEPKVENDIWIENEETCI
# Description: Drosophila melanogaster S2 cells, cultured under standard conditions (1) were transiently transfected with the apoaequorin ORF (Radford J C, Davies S A, Dow J A. Systematic G-protein-coupled receptor analysis in Drosophila melanogaster identifies a leucokinin receptor with novel roles. J Biol Chem. 2002; 277:38810-38817) and a receptor ORF construct, and expression induced using CuSO4. Transfected S2 cells were harvested and incubated with 2.5 μM coelenterazine in the dark at RT for 1-2 h as described (ibid). 25,000 cells were then placed in 135 μl Schneider's medium supplemented with 10% FCS in a well of a white polystyrene 96-well plate (Berthold Technologies). Bioluminescence recordings were carried out using a Mithras LB940 automated 96-well plate reader (Berthold Technologies) and MikroWin software. 15 μl of each of different peptides were applied to final concentrations as required.
# Peptides were tested at 10^−7M.
# At the end of each recording samples were disrupted by the addition of 100 μl lysis solution, and the [Ca^2+] concentrations calculated as previously described (Rosay P, Davies S A, Yu Y, Sozen A, Kaiser K, et al. Cell-type specific calcium signalling in a Drosophila epithelium. J Cell Sci. 1997; 110:1683-1692).
# For the Capa1 and Capa2 peptides, the relevant native control peptide (D. melanogaster Capa1 or Capa2 respectively) was used as a control. Control agonist activity was normalised to 100% and activity of neuropeptide analogues is expressed relative to that.
# [2] = test system: bumblebees (Bombus terrestris); test: Bumblebee acute oral toxicity test; assay type: in vivo; settings: for safety towards B. terrestris in the bumblebee oral toxicity assay: in vivo
# Description: Oral toxicity against bumblebees (Bombus terrestris) was determined as previously described:
# OECD (2017), Test No. 247: Bumblebee, Acute Oral Toxicity Test, OECD Guidelines for the Testing of Chemicals, Section 2, OECD Publishing, Paris, https://doi.org/10.1787/9789264284128-en.
# Example data are provided for peptides, AH56, AH257, AH259 in Tables 4, 5 below. […]
# Data were acquired for: feeding behaviour—weight of liquid consumed pre- and post-treatment; lethality (days).
# There was no negative impact on feeding behaviour from capa peptides. Acute bumblebee toxicity was also assessed for other peptide candidates including: AH270, PEG270. Overall, capa peptides are bee safe.
# [3] = target: T2, Drosophila melanogaster capa GPCR, capaR (Drosophila melanogaster, UniProt Q8ITC7 1-477); test: cell-based or functional assay
# T2 sequence (looked up): T1 sequence (Q8ITC7 1-477)
# [4] = Table 11, individual bees, peptide 1 × 10 − 5M or Spirotetramat 25 uM
molecule,measurement,setting,value
"CC(C)C[C@H](N=C(N(C)C)N(C)C)C(=O)N[C@H](C(=O)N[C@@H](C)C(=O)N[C@@H](Cc1ccccc1)C(=O)N1CCC[C@H]1C(=O)N[C@@H](CCCNC(=N)N)C(=O)N(C)[C@H](C(N)=O)C(C)C)C(C)C [AH257, Guanidyl-LVAFPR-(Me)V-NH2]",CapaR Ca^2+ Agonist response,[1],85%
same,lethal effect on bumblebees,"[2]; 1×10^−5 M in 50% sucrose, 0.1% ATPlus, oral",No lethal effect
same,dead?,"[2]; Table 10, individual bees, peptide ×10−5M or imidacloprid 28.3 uM in 50% sucrose, 0.1% ATPlus",2
same,safety towards B. terrestris in the bumblebee oral toxicity assay,[2],safe
same,Est weight sucrose consumed post testing/day,"[2]; individual bees, peptide ×10−5M or imidacloprid 28.3 uM in 50% sucrose, 0.1% ATPlus",0.4789 grams/day and 0.0824 grams/day and 0.2612 grams/day and 0.3450 grams/day and 0.1265 grams/day and 0.4161 grams/day and 0.2912 grams/day and 0.3677 grams/day and 0.2298 grams/day and 0.3016 grams/day and 0.2869 grams/day
same,"Feeding impacted? (+ve feeding increased post pep, −ve feeding decreased post pep)","[2]; individual bees, post minus pre testing sucrose consumption",0.0902 grams/day and −0.0881 grams/day and 0.0770 grams/day and 0.0006 grams/day and −0.0429 grams/day and −0.0008 grams/day and −0.0193 grams/day and 0.2039 grams/day and 0.0347 grams/day and 0.0995 grams/day and 0.0416 grams/day
same,"T-test outcome, sucrose consumed Pre vs Post",[2]; per treatment group,No sig effect
"CC(C)C[C@H](NC(=O)CCCCCN)C(=O)N[C@H](C(=O)N(C)[C@@H](C)C(=O)N[C@@H](Cc1ccccc1)C(=O)N1CCC[C@H]1C(=O)N[C@@H](CCCNC(=N)N)C(=O)N(C)[C@H](C(N)=O)C(C)C)C(C)C [AH270, H-Ahx-LV-(Me)A-FPR-(Me)V-NH2]",CapaR Ca^2+ Agonist response,[1],85%
same,"Liquid post exposure (weight), Mean","[2]; Table 11, group mean, n=10",0.7794 g
same,"liquid consumed per day post exposure, Mean","[2]; Table 11, group mean, n=10",0.1949 g
same,Liquid post exposure (weight),[2]; [4],0.9262 g and 0.7170 g and 1.8815 g and 0.8535 g and 0.6307 g and 0.4568 g and 0.3007 g and 0.5227 g and 1.1365 g and 0.3679 g
same,days alive,[2]; [4],4 days
same,liquid consumed per day post exposure,[2]; [4],0.2316 g and 0.1793 g and 0.4704 g and 0.2134 g and 0.1577 g and 0.1142 g and 0.0752 g and 0.1307 g and 0.2841 g and 0.0920 g
same,safety towards B. terrestris in the bumblebee oral toxicity assay,[2],safe
B1,CapaR Ca^2+ Agonist response at 10^-7 M,[3],85 % of native Capa2 activity
B2,CapaR Ca^2+ Agonist response at 10^-7 M,[3],12 % of native Capa2 activity
